Source: the supplement of paper PMC5752671
Structures can show the parent of a compound that is named as a salt.

Tests used:
Settings in all cases: 4 days
[1] = system: EOL-1; assay: IC50 (cell viability) (log10 M)
How it was run: (§1)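 Listed values are the IC50, taken from fitted curves. Each is the log10 M concentration at which a four-parameter curve crosses 50% viability; where that point is not reached, the highest concentration tested is given. Fourteen leukemia cell lines on extracellular-matrix-coated 384-well plates were exposed in duplicate to eight drug concentrations within 10^–12–10^–4 M, and viability was read with CellTiter-Glo after 4 days.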

[2] = system: HL60; assay: IC50 (cell viability) (log10 M)
How it was run: as §1

[3] = system: KASUMI1; assay: IC50 (cell viability) (log10 M)
How it was run: as §1

[4] = system: KG1; assay: IC50 (cell viability) (log10 M)
How it was run: as §1

[5] = system: MOLM/13; assay: IC50 (cell viability) (log10 M)
How it was run: as §1

[6] = system: MOLM/16; assay: IC50 (cell viability) (log10 M)
How it was run: as §1

[7] = system: MV4.11; assay: IC50 (cell viability) (log10 M)
How it was run: as §1

[8] = system: NB4; assay: IC50 (cell viability) (log10 M)
How it was run: as §1

[9] = system: OCI-AML2; assay: IC50 (cell viability) (log10 M)
How it was run: as §1

[10] = system: OCI-AML3; assay: IC50 (cell viability) (log10 M)
How it was run: as §1

[11] = system: PL-21; assay: IC50 (cell viability) (log10 M)
How it was run: as §1

[12] = system: SKM1; assay: IC50 (cell viability) (log10 M)
How it was run: as §1

[13] = system: THP-1; assay: IC50 (cell viability) (log10 M)
How it was run: as §1

[14] = system: U937; assay: IC50 (cell viability) (log10 M)
How it was run: as §1

[15] = system: HL60; assay: area under dose-response curve (cell viability) (AUC (arbitrary, % viability x log concentration)); higher = less sensitive (more viable)
How it was run: (§2)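 The value given is the area under a fitted sigmoid dose-response curve. That sigmoid had four parameters and was fitted to duplicate-averaged data from fourteen leukemia cell lines grown on extracellular-matrix-coated 384-well plates. One day after plating, drugs were robotically dosed in duplicate at eight concentrations spanning 4–5 logs between 10^–12 and 10^–4 M, chosen per drug, and viability was read with CellTiter-Glo 4 days later.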

[16] = system: MV4.11; assay: as above
How it was run: as §2

[17] = system: OCI-AML3; assay: as above
How it was run: as §2

[18] = system: PL-21; assay: as above
How it was run: as §2

[19] = system: SKM1; assay: as above
How it was run: as §2

[20] = system: U937; assay: as above
How it was run: as §2

Compound | IC50 (log10 M) [1] | IC50 (log10 M) [2] | IC50 (log10 M) [3] | IC50 (log10 M) [4] | IC50 (log10 M) [5] | IC50 (log10 M) [6] | IC50 (log10 M) [7] | IC50 (log10 M) [8] | IC50 (log10 M) [9] | IC50 (log10 M) [10] | IC50 (log10 M) [11] | IC50 (log10 M) [12] | IC50 (log10 M) [13] | IC50 (log10 M) [14] | area under dose-response curve [15] | area under dose-response curve [16] | area under dose-response curve [17] | area under dose-response curve [18] | area under dose-response curve [19] | area under dose-response curve [20]
COc1cc2/c(=N/c3ccc(Br)cc3F)nc[nH]c2cc1OCC1CCN(C)CC1 [Vandetanib] | -5.82 | > -5 | -5.19 | -5.41 | > -5 | > -5 | -5.38 | > -5 | > -5 | > -5 | > -5 | > -5 | > -5 | > -5 | 675 | 635 | 697 | 636 | 678 | 730
Clc1ccc(Nc2nnc(Cc3ccncc3)c3ccccc23)cc1 [Vatalanib] | -6.19 | > -5 | -5.26 | > -5 | > -5 | > -5 | > -5 | > -5 | > -5 | > -5 | > -5 | > -5 | > -5 | > -5 | 712 | 666 | 694 | 614 | 653 | 688
CC[C@]1(O)C[C@@H]2CN(CCc3c([nH]c4ccccc34)[C@@](C(=O)OC)(c3cc4c(cc3OC)N(C)[C@H]3[C@@](O)(C(=O)OC)[C@H](OC(C)=O)[C@]5(CC)C=CCN6CC[C@]43[C@@H]65)C2)C1 [Vinblastine sulfate] | < -8.48 | < -8.48 | < -8.48 | < -8.48 | < -8.48 | < -8.48 | < -8.48 | < -8.48 | < -8.48 | < -8.48 | < -8.48 | < -8.48 | < -8.48 | < -8.48 | 50.7 | 4.8 | 11.7 | 9.49 | 61.1 | 4.36
CC[C@]1(O)C[C@H]2CN(CCc3c([nH]c4ccccc34)[C@@](C(=O)OC)(c3cc4c(cc3OC)N(C=O)[C@H]3[C@@](O)(C(=O)OC)[C@H](OC(C)=O)[C@]5(CC)C=CCN6CC[C@]43[C@@H]65)C2)C1 [Vincristine sulfate] | < -8.48 | < -8.48 | < -8.48 | < -8.48 | < -8.48 | < -8.48 | < -8.48 | < -8.48 | < -8.48 | < -8.48 | < -8.48 | < -8.48 | < -8.48 | < -8.48 | 52.9 | 5.09 | 12.2 | 7.49 | 59.2 | 4.64
CCC1=C[C@@H]2CN(C1)Cc1c([nH]c3ccccc13)[C@@](C(=O)OC)(c1cc3c(cc1OC)N(C)[C@H]1[C@@](O)(C(=O)OC)[C@H](OC(C)=O)[C@]4(CC)C=CCN5CC[C@]31[C@@H]54)C2 [Vinorelbine tartrate] | < -8.34 | -8.33 | -7.98 | -7.11 | -7.99 | -7.87 | -7.87 | < -8.34 | -7.68 | -8 | -8.06 | -7.84 | -7.72 | < -8.34 | 295 | 315 | 301 | 297 | 329 | 136
O=C(CCCCCCC(=O)Nc1ccccc1)NO [Vorinostat] | -6.51 | -5.94 | -6.07 | -6.01 | -5.96 | -6.51 | -6.48 | -6.22 | -6.33 | -5.87 | -5.94 | -5.97 | -5.88 | -6.13 | 534 | 447 | 530 | 496 | 584 | 508
COCC[n+]1c2c(n(Cc3cnccn3)c1C)C(=O)c1ccccc1C2=O [YM-155] | < -8.34 | < -8.34 | < -8.34 | -7.71 | < -8.34 | -8.13 | -8.32 | < -8.34 | < -8.34 | < -8.34 | -7.78 | < -8.34 | -8.33 | < -8.34 | 85.2 | 268 | 86.8 | 311 | 69.8 | 125
FC(F)c1nc2ccccc2n1-c1nc(N2CCOCC2)nc(N2CCOCC2)n1 [ZSTK-474] | -6.23 | -5.46 | -6.2 | > -5 | > -5 | -5.92 | > -5 | > -5 | > -5 | -5.21 | -5.57 | > -5 | > -5 | -5.8 | 599 | 603 | 584 | 533 | 563 | 541
